Data set [1] has as its target T1, LdGSTu1 (Leptinotarsa decemlineata, UniProt A0A1P8PEY0).
T1 construct: full-length LdGSTu1
T1 sequence (A0A1P8PEY0 1-230): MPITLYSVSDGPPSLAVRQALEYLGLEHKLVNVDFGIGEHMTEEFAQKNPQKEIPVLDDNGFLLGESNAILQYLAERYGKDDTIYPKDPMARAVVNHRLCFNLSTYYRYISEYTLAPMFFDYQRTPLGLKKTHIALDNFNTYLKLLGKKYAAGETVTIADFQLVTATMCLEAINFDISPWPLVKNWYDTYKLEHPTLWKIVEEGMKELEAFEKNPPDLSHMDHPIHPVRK
Briefly: steady-state enzyme kinetics of the purified enzyme (Km). It counts as biochemical.

Data set [2] deals with T1, LdGSTu1. Briefly: inhibition of GSH-CDNB conjugation by the recombinant enzyme (residual activity […] at […], […] at […]). It counts as biochemical.
In data set [3] the target is T1, LdGSTu1. Briefly: inhibition of GSH-CDNB conjugation by the recombinant enzyme (residual activity at […]). The data set is classed as biochemical.
Substrate in data set [4]: CC(=O)Oc1ccc([N+](=O)[O-])cc1
As to the kind of experiment: steady-state enzyme kinetics of the purified enzyme (Km). The data set is classed as biochemical, Leptinotarsa decemlineata. The conditions noted are these: GSH.

By Km is commonly meant the concentration of substrate that gives half-maximal velocity. For `O=[N+]([O-])c1ccc(Cl)c([N+](=O)[O-])c1` [CDNB, 1-chloro-2,4-dinitrobenzene], the Michaelis constant (Km) in data set [1] turned out to be 542 ± 88 µM. With `C=C(CC)C(=O)c1ccc(OCC(=O)O)c(Cl)c1Cl` [EA, ethacrynic acid], the “%” value in data set [2] is 49.6% residual activity at 200 µM. As for `C/C(=N\C#N)N(C)Cc1ccc(Cl)nc1` [acetamiprid], the “%” value in data set [3] is recorded as 39.1% residual activity at 5 mM.

Turning to `CCOP(=S)(OCC)Oc1nc(Cl)c(Cl)cc1Cl` [chlorpyrifos], the “%” value in data set [3] was 70.5% residual activity at 5 mM. Turning to `CCOP(=S)(OCC)Oc1cc(C)nc(C(C)C)n1` [diazinon], the “%” value in data set [3] is 75.3% residual activity at 5 mM. Same read-out and setting: next, `O=[N+]([O-])NC1=NCCN1Cc1ccc(Cl)nc1` [imidacloprid]: 66.4% residual activity at 5 mM.

As to `CN1COCN(Cc2cnc(Cl)s2)/C1=N\[N+](=O)[O-]` [thiamethoxam], the “%” value in data set [3] was 72.3% residual activity at 5 mM.

B1: LdGSTu1 (Leptinotarsa decemlineata) (protein)
chain: T1 sequence (A0A1P8PEY0 1-230)
notes: full-length LdGSTu1
Usually Vmax stands for the rate approached at saturating substrate. As a reminder, the kcat is the maximal rate divided by the concentration of active sites. The kcat/Km is the second-order rate constant that governs catalysis at low substrate concentration. B1: in data set [4], the Km amounted to 1830 ± 572 µM, the Vmax turned out to be 13.5 µM/min, the kcat was 0.128 ± 0.0202 s⁻¹ and the kcat/Km was 70 M⁻¹ s⁻¹.

(Values after paper PMC8584303 (International Journal of Molecular Sciences, 2021).)
